SMILES strings stand for the structures.

Kd, Ki and IC50 data for one compound are collected here from article PMC9459812, “Evaluation of Activity of Sesquiterpene Lactones and Chicory Extracts as Acetylcholinesterase Inhibitors Assayed in Calorimetric and Docking Simulation Studies” (Nutrients, 2022).

Experiment [1] deals with T1, acetylcholinesterase (AChE) (Electrophorus electricus, UniProt O42275). Kind of experiment: biochemical. Particulars: ITC, 36.6 °C, single binding site mode, n = 9, ± SD; read-out: KD (dissociation constant).
Experiment [2] has as its target T1, acetylcholinesterase (AChE). Description: biochemical. Particulars: ITC, n = 9, ± SD.

T1 sequence (O42275 24-633): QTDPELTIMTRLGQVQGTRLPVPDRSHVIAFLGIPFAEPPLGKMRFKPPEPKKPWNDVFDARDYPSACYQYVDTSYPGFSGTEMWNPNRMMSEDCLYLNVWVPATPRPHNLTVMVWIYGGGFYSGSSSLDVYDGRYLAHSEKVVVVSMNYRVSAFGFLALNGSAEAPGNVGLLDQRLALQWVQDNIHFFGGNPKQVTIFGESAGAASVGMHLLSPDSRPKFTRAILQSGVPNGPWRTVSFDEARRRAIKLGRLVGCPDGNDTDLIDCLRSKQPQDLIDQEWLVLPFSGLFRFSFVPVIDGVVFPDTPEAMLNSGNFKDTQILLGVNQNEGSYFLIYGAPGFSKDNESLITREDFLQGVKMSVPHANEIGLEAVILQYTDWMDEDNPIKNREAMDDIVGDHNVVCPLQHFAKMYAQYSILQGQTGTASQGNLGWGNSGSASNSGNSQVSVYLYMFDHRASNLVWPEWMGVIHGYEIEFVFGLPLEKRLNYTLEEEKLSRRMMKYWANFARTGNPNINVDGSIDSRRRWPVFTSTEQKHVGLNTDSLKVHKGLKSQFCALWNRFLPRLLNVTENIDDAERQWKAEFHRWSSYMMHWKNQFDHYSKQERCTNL

Take `C=C1C(=O)O[C@@H]2[C@H]3C(CO)=CC(=O)C3=C(C)C[C@H](OC(=O)Cc3ccc(O)cc3)[C@@H]12` [Lactucopicrin, lactucopicrin]: the Kd (usually the concentration at which binding is half-saturated) in experiment [1] was found to be 169000 ± 120 nM. In addition, the Ki – broadly, the dissociation constant of the complex between target and ligand, obtained from inhibition or displacement – in experiment [2] (dissociation constant of the enzyme–inhibitor complex, read-out: KI (inhibition constant)) worked out at 1320 ± 110 nM. Half-maximal inhibition in experiment [2] (inhibitor concentration causing 50% decrease in enzyme activity (converted to lactucine for extracts)) (IC50) was put at 1740 ± 110 nM.
